Test results published in US9517244B2, “Therapeutic combinations for use in neoplasia” (University of Florida Research Foundation, Inc., priority 2011, dated 2016).
Read-outs that look alike come from different tables or passages of the source. Blank lines part the entries; values can stand above or below the compound they belong to.

How the values were obtained:
SW480 = experiment: MTT assay, MMR-proficient colon cancer cell line; type: cell-based; settings: Homo sapiens, SW480, 72 h, read-out: IC50 of TMZ
Protocol: (§1) The use of NSC-30049 as a chemopreventive agent for the treatment of colon cancer was also tested. In one experiment, NSC-30049 in combination with temozolomide was administered to colon cancer cell lines, including mismatch repair (MMR) proficient and MMR deficient cancer cell lines (Table 4). MMR proficient colon cancer cell lines tested included HCT-116+ch3, SW480, and HT29. MMR deficient cancer cell lines tested included HCT-116 and LoVo. Cells were pre-treated for 2 h with […] concentrations of NSC-30049 prior to treatment with temozolomide. After the treatment cells were allowed to grow for 72 hours. The cell growth inhibition was determined by MTT assay. Data presented are the mean±SE of three different estimations. The p value as compared to control of the Student's t-test is given in parenthesis. * p<0.05; ** p<0.01; *** p<0.001. Increasing the concentration of NSC-30049 decreased the IC50 of temozolomide for all cell lines tested, regardless of whether they were MMR proficient or deficient.

LoVo = experiment: MTT assay, MMR-deficient colon cancer cell line; type: cell-based
Protocol: as §1
(§2) In addition to temozolomide, oxaliplatin is another chemotherapeutic agent used for the treatment of colon cancer. In another experiment, NSC-30049 in combination with oxaliplatin was administered to colon cancer cell lines, including mismatch repair (MMR) proficient and MMR deficient cancer cell lines (Table 5). MMR proficient colon cancer cell lines tested included HCT-116+ch3 and HT29. MMR deficient cancer cell lines tested included HCT-116 and LoVo. Cells were pre-treated with the indicated concentrations of NSC-33049 for 2 h followed by the treatment with different concentrations of oxaliplatin for additional 48 h. The cell growth inhibition was determined by MTT assay. Data presented are the mean±SE of three different estimations. The p value of Student's t-test as compared to the control is given in parenthesis (* p<0.05; ** p<0.01; *** p<0.001). Increasing the concentration of NSC-30049 decreased the IC50 of oxaliplatin for all cell lines tested, regardless of whether they were MMR proficient or deficient.

HCT-116 = experiment: MTT assay, MMR-deficient colon cancer cell line; type: cell-based
Protocol: as §1, §2

U118 = experiment: MTT assay, brain cancer cell line; type: cell-based; settings: 120 h, read-out: IC50 of TMZ
Protocol: (§3) The use of NSC-30049 as a chemopreventive agent for the treatment of brain cancer was also tested. NSC-30049 in combination with temozolomide was administered to brain cancer cell lines, including U118, U138, U87MG, A172, and T98 cell lines (Table 6). Cells were pretreated with the indicated concentrations of NSC-30049 followed by TMZ for 120 h. After treatment, cells were processed for the determination of viability by cell proliferation assay (MTT assay). The data from the graph was used for the determination of IC50, which is presented as the mean±SE of three different estimations. Increasing the concentration of NSC-30049 decreased the IC50 of temozolomide for all cell lines tested, regardless of whether they were MMR proficient or deficient.

U87MG = experiment: MTT assay, brain cancer cell line; type: cell-based; settings: Homo sapiens, U-87 MG, 120 h, read-out: IC50 of TMZ
Protocol: as §3

U138 = experiment: MTT assay, brain cancer cell line; type: cell-based; settings: 120 h, read-out: IC50 of TMZ
Protocol: as §3

A172 = experiment: MTT assay, brain cancer cell line; type: cell-based; settings: Homo sapiens, A 172, 120 h, read-out: IC50 of TMZ
Protocol: as §3

T98 = experiment: MTT assay, brain cancer cell line; type: cell-based; settings: Homo sapiens, T98, 120 h, read-out: IC50 of TMZ
Protocol: as §3

HT29 = experiment: MTT assay, MMR-proficient colon cancer cell line; type: cell-based
Protocol: as §1, §2

HCT-116 + ch3 = experiment: MTT assay, MMR-proficient colon cancer cell line; type: cell-based
Protocol: as §1, §2

[1] = tested on: human parental cancer cells; experiment: cell growth inhibition of parental cancer cells; type: cell-based; settings: alone, 1.25 μM, 72 h
Protocol: (§4) Cells were treated with 1.25 μM of NSC-30049 and 1.25 μM of OPT either alone or in combination for 72 h. Data are mean±SD of triplicate experiments. […] Cells were treated with 1.25 μM of NSC-30049 and 1.25 μM of OPT either alone or in combination for 72 h. Fold change in gene expression values is shown as mean±SD of three experiments and are normalized to GAPDH gene expression.
(§5) The effect of administration of NSC-30049 in combination with oxaliplatin (OPT) was also examined in human parental cancer cells and colon cancer stem cells (FIG. 9A). Cells were treated with 1.25 μM of NSC-30049 and […] of OPT either alone or in combination for 72 h. Cell growth inhibition was assayed. Data presented are mean±SD of triplicate experiments.

BxPC3 = experiment: MTT assay, pancreatic cancer cell line; type: cell-based, human; settings: BxPC3, 48 h, read-out: IC50 of Oxaliplatin
PANC1 = experiment: MTT assay, pancreatic cancer cell line; type: cell-based, human; settings: PANC1, 48 h, read-out: IC50 of Oxaliplatin
colon cancer stem cells = experiment: cell growth inhibition of colon cancer stem cells; type: cell-based, human; settings: alone, 1.25 μM, 72 h
Protocol: as §4, §5

[2] = Homo sapiens, HCT-116, 72 h, NSC-30049 0 μM, 72 h, read-out: IC50 of TMZ
[3] = Homo sapiens, HCT-116, 72 h, NSC-30049 0.5 μM, 72 h, read-out: IC50 of TMZ
[4] = Homo sapiens, HCT-116, 72 h, NSC-30049 1.0 μM, 72 h, read-out: IC50 of TMZ
[5] = Homo sapiens, HCT-116, 72 h, NSC-30049 2.5 μM, 72 h, read-out: IC50 of TMZ
[6] = NSC-30049 0 μM, 48 h, read-out: IC50 of oxaliplatin
[7] = NSC-30049 1.0 μM, 48 h, read-out: IC50 of oxaliplatin
[8] = NSC-30049 2.5 μM, 48 h, read-out: IC50 of oxaliplatin
[9] = NSC-30049 5.0 μM, 48 h, read-out: IC50 of oxaliplatin

IC50 (SW480; NSC-30049 0 μM): 377 ± 12 µM
IC50 (SW480; NSC-30049 0.5 μM): 325 ± 18 µM
IC50 (SW480; NSC-30049 1.0 μM): 167 ± 49 µM
IC50 (SW480; NSC-30049 2.5 μM): 0.47 ± 0.03 µM
IC50 (LoVo; Homo sapiens, 72 h, NSC-30049 0 μM, 72 h, read-out: IC50 of TMZ): 1106 ± 0.02 µM
IC50 (LoVo; Homo sapiens, 72 h, NSC-30049 0.5 μM, 72 h, read-out: IC50 of TMZ): 366 ± 6 µM
IC50 (LoVo; Homo sapiens, 72 h, NSC-30049 1.0 μM, 72 h, read-out: IC50 of TMZ): 8 ± 0.8 µM
IC50 (LoVo; Homo sapiens, 72 h, NSC-30049 2.5 μM, 72 h, read-out: IC50 of TMZ): 3.82 ± 0.09 µM
IC50 (HCT-116; [2]): 620 ± 11 µM
IC50 (HCT-116; [3]): 361 ± 10 µM
IC50 (HCT-116; [4]): 160 ± 63 µM
IC50 (HCT-116; [5]): 3.81 ± 0.11 µM
IC50 (U118; NSC-30049 0 μM): 136 ± 3.7 µM
IC50 (U118; NSC-30049 1.0 μM): 78.4 ± 1.3 µM
IC50 (U118; NSC-30049 2.5 μM): 14.5 ± 2.5 µM
IC50 (U118; NSC-30049 5.0 μM): 1.1 ± 3 µM
IC50 (U87MG; NSC-30049 0 μM): 493 ± 83.9 µM
IC50 (U87MG; NSC-30049 1.0 μM): 33 ± 5.1 µM
IC50 (U87MG; NSC-30049 2.5 μM): 19.9 ± 10.5 µM
IC50 (U87MG; NSC-30049 5.0 μM): 13.7 ± 8.5 µM
IC50 (U138; NSC-30049 0 μM): 432 ± 19.1 µM
IC50 (U138; NSC-30049 1.0 μM): 278 ± 14.6 µM
IC50 (U138; NSC-30049 2.5 μM): 3.8 ± 0.4 µM
IC50 (U138; NSC-30049 5.0 μM): 0.8 ± 0.02 µM
IC50 (A172; NSC-30049 0 μM): 154 ± 6.8 µM
IC50 (A172; NSC-30049 1.0 μM): 89.5 ± 7.8 µM
IC50 (A172; NSC-30049 2.5 μM): 82.9 ± 5.1 µM
IC50 (A172; NSC-30049 5.0 μM): 75.1 ± 5.2 µM
IC50 (T98; NSC-30049 0 μM): 554 ± 53.9 µM
IC50 (T98; NSC-30049 1.0 μM): 511 ± 14.7 µM
IC50 (T98; NSC-30049 2.5 μM): 382 ± 5.9 µM
IC50 (T98; NSC-30049 5.0 μM): 245 ± 8.7 µM
IC50 (HT29; Homo sapiens, HT-29, 72 h, NSC-30049 0 μM, 72 h, read-out: IC50 of TMZ): 1450 ± 144 µM
IC50 (HT29; Homo sapiens, HT-29, 72 h, NSC-30049 0.5 μM, 72 h, read-out: IC50 of TMZ): 1270 ± 60 µM
IC50 (HT29; Homo sapiens, HT-29, 72 h, NSC-30049 1.0 μM, 72 h, read-out: IC50 of TMZ): 815 ± 93 µM
IC50 (HT29; Homo sapiens, HT-29, 72 h, NSC-30049 2.5 μM, 72 h, read-out: IC50 of TMZ): 248 ± 59 µM
IC50 (HT29; Homo sapiens, HT-29, 72 h, NSC-30049 5.0 μM, 72 h, read-out: IC50 of TMZ): 5.33 ± 0.07 µM
IC50 (HCT-116 + ch3; [2]): 236 ± 23 µM
IC50 (HCT-116 + ch3; [3]): 206 ± 13 µM
IC50 (HCT-116 + ch3; [4]): 153 ± 10 µM
IC50 (HCT-116 + ch3; [5]): 0.73 ± 0.04 µM
IC50 (HCT-116 + ch3; Homo sapiens, HCT-116, 72 h, NSC-30049 5.0 μM, 72 h, read-out: IC50 of TMZ): 0.35 ± 0.01 µM
SMILES: Cn1nnc2c(C(N)=O)ncn2c1=O [TMZ, Temozolomide]

SMILES: O=C1[O][Pt]2([NH][C@@H]3CCCC[C@H]3[NH]2)[O]C1=O [Oxaliplatin, oxaliplatin]
inhibition of growth [1]: ~65%
IC50 (LoVo; [6]): 0.75 ± 0.02 µM
IC50 (LoVo; NSC-30049 0.5 μM, 48 h, read-out: IC50 of oxaliplatin): 0.59 ± 0.04 µM
IC50 (LoVo; [7]): 0.07 ± 0.02 µM
IC50 (LoVo; [8]): 0.03 µM
IC50 (HCT-116; [6]): 1.5 ± 0.01 µM
IC50 (HCT-116; [7]): 0.78 ± 0.02 µM
IC50 (HCT-116; [8]): 0.03 µM
IC50 (HCT-116; [9]): 0.02 µM
IC50 (BxPC3; NSC-30049 0 μM): 2 ± 0.4 µM
IC50 (BxPC3; NSC-30049 0.5 μM): 0.71 ± 0.39 µM
IC50 (BxPC3; NSC-30049 1.0 μM): 0.33 ± 0.06 µM
IC50 (BxPC3; NSC-30049 2.5 μM): 0.01 µM
IC50 (HT29; [6]): 0.92 ± 0.03 µM
IC50 (HT29; [7]): 0.82 ± 0.06 µM
IC50 (HT29; [8]): 0.59 ± 0.02 µM
IC50 (HT29; [9]): 0.03 µM
IC50 (HCT-116 + ch3; [6]): 5.83 ± 0.36 µM
IC50 (HCT-116 + ch3; [7]): 4.98 ± 0.17 µM
IC50 (HCT-116 + ch3; [8]): 0.91 ± 0.12 µM
IC50 (HCT-116 + ch3; [9]): 0.03 µM
IC50 (PANC1; NSC-30049 0 μM): 14.5 ± 0.38 µM
IC50 (PANC1; NSC-30049 0.5 μM): 0.38 ± 0.06 µM
IC50 (PANC1; NSC-30049 1.0 μM): 0.13 ± 0.04 µM
IC50 (PANC1; NSC-30049 2.5 μM): 0.37 ± 0.22 µM
inhibition of growth (colon cancer stem cells): ~40%
